The subject of assay [1] is V. cholerae BH1578 lux luminescence, 6 h. As to the kind of experiment: Cholera quorum agonist confirmation, luxS deficient cqsA deficient strain BH1578, luminescence (AID 624270).
Test in assay [2]: as above
The note with it: V. cholerae BH1578 lux luminescence, 6 h; at 35 µM (top of the series).

The values below come from PubChem BioAssay AID624270 (Broad Institute, 2012).

Molecules are shown by their SMILES. Calls of active or inactive are those of the source. The rule behind the calls is not given here.

Regarding `CCCn1nnnc1NCc1ccc(N2CCCC2)cc1`, the AC50 (as a rule, the concentration giving half of the maximal activity seen) in assay [1] is 13.8 nM.

As for `COc1ccccc1NC(=O)COC(=O)c1ccc(C)cc1`, the AC50 in assay [1] was 397 nM.

On to `CCOc1ccc(Nc2ccc3nonc3c2[N+](=O)[O-])cc1`, for which the AC50 in assay [1] was 183 nM.

As for `Cc1ccc(OCCNC(=O)c2cccc(C)c2)cc1`, the AC50 in assay [1] is 96 nM.

In the case of `COc1ccccc1NC(=O)COC(=O)c1oc2ccccc2c1C`, the AC50 in assay [1] is 1570 nM.

For `O=C(Cc1ccc(-c2ccccc2)cc1)NC1CCCC1`, the AC50 in assay [1] is 104 nM.

In the case of `O=c1ncn(-c2cccc(Cl)c2)c2ccccc12`, the AC50 in assay [1] is 1.29 nM.

As for `Cc1ccc2cc3c(NC(=O)c4ccco4)nn(C)c3nc2c1`, in assay [1], the AC50 was 2870 nM.

As for `CCCn1nnnc1NCc1ccc(C(C)C)cc1`, the AC50 in assay [1] is 45.2 nM.

Regarding `COc1ccccc1NC(=O)COC(=O)c1cc2c(s1)CCC2`, in assay [1], the AC50 is 66.2 nM.

Regarding `Cc1ccc(CC(=O)NC2CCCC2)cc1`, in assay [2], the activation (light induction) was 15.8% (inactive).

As for `CCCn1nnnc1NCc1ccc(N(CC)CC)cc1`, the AC50 in assay [1] was 54.8 nM.

For the molecule `Cc1c(Cl)cccc1-n1cnc(=O)c2ccccc21`, the AC50 in assay [1] was > 35000 nM (inactive).

Regarding `CCC(C)NC(=O)Cc1ccc(-c2ccccc2)cc1` (stereo not given), in assay [1], the AC50 is 1240 nM.

For the molecule `O=C(Nc1nnc(-c2ccc3c(c2)OCCO3)o1)C1CCCCC1`, the AC50 in assay [1] was 1380 nM.

As to `COc1ccc(Cl)cc1NC(=O)COC(=O)c1ccc(C)o1`, the AC50 in assay [1] was 63.8 nM.

Regarding `CCn1c(CC(=O)Nc2cccc(Cl)c2Cl)nnc1SCCOc1ccc(OC)cc1`, the activation (light induction) in assay [2] was 1.79% (inactive).

With `CCn1nnnc1NCc1ccc(N2CCCC2)cc1`, the AC50 in assay [1] is 4.14 nM.

As to `CCn1nnc(NCc2ccc(C)cc2)n1`, in assay [2], the activation (light induction) is 0.27% (inactive).

Regarding `CCCn1nnnc1NCc1ccccc1Cl`, in assay [2], the activation (light induction) is 1.22% (inactive).
